Patent US6723747B2, “Substituted 6H-DiBenzo[c,h]chromenes as estrogenic agents” (Wyeth, priority 2001, dated 2004)

Legend:
[1] = system: progesterone receptor mRNA in the preoptic area of the rat brain; experiment: Progesterone receptor mRNA regulation test procedure; type: in vivo; settings: 10 mg/kg, vehicle 189.2 ± 27.2
Excerpt: This test procedure can be used to evaluate the estrogenic or antiestrogenic activity of compounds from this invention [Shughrue, et al., Endocrinology 138: 5476-5484 (1997)].

129 SvE mice = experiment: Mouse uterotrophic test procedure (Procedure 2); type: in vivo; settings: 50 mg/kg subcutaneously, 4 days, immature mice; first experiment, vehicle 9.5 ± 0.3
Experimental: Procedure 2: Sexually immature (18 days of age) 129 SvE mice were obtained from Taconic and provided unrestricted access to a casein-based diet (Purina Mills 5K96C) and water. On day 22, 23, 24 and 25 the mice were dosed subcutaneously with compound or vehicle (corn oil). There were six mice/group and they were euthanized approximately 6 hours after the last injection by CO2 asphyxiation and pneumothorax. Uteri were removed and weighed after trimming associated fat and expressing any internal fluid. The following results (Table (2)) were obtained for representative compounds from the invention.

casein kinase II mRNA = experiment: Mammary end bud test procedure (rat mammotrophic assay); type: in vivo; settings: 20 mg/kg sc + progesterone 30 mg/kg; ovariectomized rats; vehicle 1.61 ± 0.36
Experimental: Estrogens are required for full ductal elongation and branching of the mammary ducts, and the subsequent development of lobulo-alveolar end buds under the influence of progesterone. In this test procedure, the mammotrophic activity of selected compounds of the invention was evaluated according to the following standard pharmacological test procedure. Twenty-eight day old Sprague-Dawley rats (Taconic Farms, Germantown, N.Y.) were ovariectomized and rested for nine days. […] For the final three days, rats were also dosed subcutaneously with progesterone (30 mg/kg). On the seventh day, rats were euthanised and a mammary fat pad excised. This fat pad was analyzed for casein kinase II mRNA as a marker of end bud proliferation. Casein kinase II mRNA was anlayzed by real-time RT-PCR. Briefly, RNA was isolated following Trizol (GibcoBRL, Grand Island, N.Y.) according to the manufacture's directions, Samples were treated with DNAse I using DNA-free kit (Ambion), and casein kinase II mRNA levels were measured by real-time RT-PCR using the Taqman Gold procedure (PE Applied Biosystems). […] Casein kinase II mRNA levels were normalized to 18s ribosomal RNA contained within each sample reaction using primers and probe supplied by PE Applied Biosystems. The following results were obtained for an example of the invention (Table (4)).

HLA-B27 rats = experiment: HLA-B27 rat model of arthritis; type: in vivo; settings: 10 mg/kg orally once daily, Study 2
Excerpt: The degree of arthritis severity is monitored daily in terms of the following disease indices: Hindpaw erythema, hindpaw swelling, tenderness of the joints, and movements and posture. An integer scale of 0 to 3 is used to quantify the level of erythema (0=normal paw, 1=mild erythema, 2=moderate erythema, 3=severe erythema) and swelling (0=normal paw, 1=mild swelling, 2=moderate swelling, 3=severe swelling of the hind paw). The maximal score per day is 12.
Evaluation in the HLA-B27 Rat model of arthritis. Representative compounds of the invention were evaluated in the HLA-B27 rat standard pharmacological test procedure which emulates arthritis in humans. The following briefly describes the procedure used and results obtained. Male HLA-B27 rats (8-10 weeks old) were obtained from Taconic and provided unrestricted access to a food (PMI Lab diet 5001) and water. Rats were dosed orally once daily with either vehicle (2% tween-80/0.5% methylcellulose) or test compound (10 mg/kg) for 26 days. Joint scores and histology are evaluated as described above for the Lewis rat model of adjuvant-induced arthritis.

human ERβ = target: T1, human ERβ (Homo sapiens, UniProt Q92731); experiment: Radioligand binding competition with [3H]-17β-estradiol, ERβ; settings: human ERβ ligand binding domain, read-out: ER-β IC50
T1 construct: M214-Q530 of human ERβ; Flag (C); made in house; host or cells: E. coli BL21(DE3), clarified lysate

human ERα = target: T2, human ERα (Homo sapiens, UniProt P03372); experiment: Radioligand binding competition with [3H]-17β-estradiol, ERα; settings: human ERα ligand binding domain, read-out: ER-α IC50
T2 construct: amino acids M250-V595 of human ERα; His (N); made in house; host or cells: E. coli BL21(DE3), clarified lysate
T2 sequence (P03372 250-595): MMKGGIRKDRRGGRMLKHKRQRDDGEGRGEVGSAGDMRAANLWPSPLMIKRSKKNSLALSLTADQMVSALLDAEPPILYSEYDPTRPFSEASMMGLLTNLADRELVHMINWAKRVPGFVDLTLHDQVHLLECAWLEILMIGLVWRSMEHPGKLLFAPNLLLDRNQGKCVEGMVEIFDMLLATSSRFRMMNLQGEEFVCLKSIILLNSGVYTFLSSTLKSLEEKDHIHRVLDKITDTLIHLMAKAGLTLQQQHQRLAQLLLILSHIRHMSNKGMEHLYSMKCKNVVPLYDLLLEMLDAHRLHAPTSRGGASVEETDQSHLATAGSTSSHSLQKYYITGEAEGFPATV

Lewis rats = experiment: Lewis rat adjuvant-induced arthritis, inhibition test procedure; type: in vivo; settings: 10 mg/kg sc daily from Day 1

T1 sequence (Q92731 214-530): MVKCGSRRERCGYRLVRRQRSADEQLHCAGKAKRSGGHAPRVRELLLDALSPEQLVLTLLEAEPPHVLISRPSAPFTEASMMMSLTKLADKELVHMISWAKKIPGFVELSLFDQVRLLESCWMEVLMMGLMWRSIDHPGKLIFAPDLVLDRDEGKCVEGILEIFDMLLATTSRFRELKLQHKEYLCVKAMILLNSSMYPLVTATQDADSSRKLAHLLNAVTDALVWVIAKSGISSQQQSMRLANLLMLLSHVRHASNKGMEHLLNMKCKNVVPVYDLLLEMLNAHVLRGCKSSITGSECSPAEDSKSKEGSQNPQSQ

melting point: > 250 °C
IC50 (human ERβ): 1.8 nM
IC50 (human ERα): 107 nM
Compound: N#Cc1cc2c(c3ccc(O)cc13)OCc1cc(O)ccc1-2 [Example 1d, 2,8-Dihydroxy-6H-dibenzo[c,h]chromene-12-carbonitrile]
Progesterone receptor mRNA (mean ± stdev) [1]: 403.9 ± 19.1 arbitrary units
mean uterine weight ± SEM (129 SvE mice): 9.8 ± 0.5 mg
Casein kinase II mRNA/18S rRNA (mean ± SEM) (casein kinase II mRNA): 1.4 ± 0.7
joint inflammation score (HLA-B27 rats; day 1, vehicle 0): 0
joint inflammation score (HLA-B27 rats; day 2, vehicle 0): 0
joint inflammation score (HLA-B27 rats; day 3, vehicle 0): 0
joint inflammation score (HLA-B27 rats; day 4, vehicle 0): 0
joint inflammation score (HLA-B27 rats; day 5, vehicle 0): 0
joint inflammation score (HLA-B27 rats; day 6, vehicle 0): 0
joint inflammation score (HLA-B27 rats; day 7, vehicle 0): 0
joint inflammation score (HLA-B27 rats; day 8, vehicle 2.5): 2
joint inflammation score (HLA-B27 rats; day 9, vehicle 3.75): 1.25
joint inflammation score (HLA-B27 rats; day 10, vehicle 2.75): 1
joint inflammation score (HLA-B27 rats; day 11, vehicle 3.5): 0
joint inflammation score (HLA-B27 rats; day 12, vehicle 1.25): 0.5
joint inflammation score (HLA-B27 rats; day 13, vehicle 1.25): 0.25
joint inflammation score (HLA-B27 rats; day 14, vehicle 1.25): 0
joint inflammation score (HLA-B27 rats; day 15, vehicle 5.25): 0.25
joint inflammation score (HLA-B27 rats; day 16, vehicle 4.5): 1
joint inflammation score (HLA-B27 rats; day 17, vehicle 3.5): 1
joint inflammation score (HLA-B27 rats; day 18, vehicle 3.75): 0.5
joint inflammation score (HLA-B27 rats; day 19, vehicle 5.5): 0.75
joint inflammation score (HLA-B27 rats; day 22, vehicle 3.25): 0.25
joint inflammation score (HLA-B27 rats; day 23, vehicle 6.5): 2
joint inflammation score (HLA-B27 rats; day 24, vehicle 6.5): 2
joint inflammation score (HLA-B27 rats; day 25, vehicle 6.25): 2
joint inflammation score (HLA-B27 rats; day 26, vehicle 7): 1.75
joint inflammation score (maximal score per day 12) (Lewis rats; day 1, vehicle 0.00): 0.00
joint inflammation score (maximal score per day 12) (Lewis rats; day 2, vehicle 0.00): 0.00
joint inflammation score (maximal score per day 12) (Lewis rats; day 3, vehicle 4.50): 2.66
joint inflammation score (maximal score per day 12) (Lewis rats; day 4, vehicle 5.50): 1.83
joint inflammation score (maximal score per day 12) (Lewis rats; day 5, vehicle 9.33): 2.66
joint inflammation score (maximal score per day 12) (Lewis rats; day 6, vehicle 10.50): 2.16
joint inflammation score (maximal score per day 12) (Lewis rats; day 7, vehicle 10.60): 2.00
joint inflammation score (maximal score per day 12) (Lewis rats; day 8, vehicle 11.00): 1.66
joint inflammation score (maximal score per day 12) (Lewis rats; day 9, vehicle 11.50): 2.00
joint inflammation score (maximal score per day 12) (Lewis rats; day 10, vehicle 11.33): 2.00
joint inflammation score (maximal score per day 12) (Lewis rats; day 11, vehicle 10.83): 1.66
joint inflammation score (maximal score per day 12) (Lewis rats; day 12, vehicle 10.83): 1.66
joint inflammation score (maximal score per day 12) (Lewis rats; day 13, vehicle 11.00): 2.16
joint inflammation score (maximal score per day 12) (Lewis rats; day 14, vehicle 11.00): 2.00
joint inflammation score (maximal score per day 12) (Lewis rats; day 15, vehicle 11.00): 2.00
joint inflammation score (maximal score per day 12) (Lewis rats; day 16, vehicle 11.00): 1.00
joint inflammation score (maximal score per day 12) (Lewis rats; day 17, vehicle 10.50): 1.33
